Values quoted from earlier work in patent US20230330298A1 (priority 2022, published 2023).

Assays:
[1] = test system: Clostridium botulinum spores
[2] = test system: bacterial spores

Structure (SMILES)	Sporicidal Minimal Inhibitory Concentration [1] [mM]	Sporostatic Minimal Inhibitory Concentration [1] [mM]	Sporicidal effect (in words) [2]
O=Cc1ccccc1 [Benzaldehyde]	625	0.6	–
O=CC=Cc1ccccc1 [Cinnamaldehyde]	>2500	9.8	–
CCCCCCCCCCCC(=O)OCC(O)CO (stereo not shown) [Monolaurin]	–	–	kill bacterial spores
O=Cc1ccc2c(c1)OCO2 [Piperonal]	>2500	0.6	–
COc1cc(C=O)ccc1O [Vanillin]	125	0.6	–
CCCCCCCCCCCCCCCCCC(=O)OCC(O)CO (stereo not shown) [glycerol monostearate]	–	–	kill bacterial spores
